Measured values taken from US20220324835A1 (Nurix Therapeutics, Inc., priority 2018, published 2022).

Assays:
[1] = test system: T-cell; test: IL-2 secretion from T-cells stimulated with anti-CD3 antibody alone (Biological Example 2); type: cell-based; conditions: primary human total T-cells, read-out: IL-2 secretion, Anti-CD3 stimulation, fold change over baseline; for fold induction at 1 µM: 1 μM compound; for fold induction at 8 µM: 8 μM compound
[2] = test system: T-cell; test: IL-2 secretion from T-cells co-stimulated with anti-CD3 and anti-CD28 antibody (Biological Example 2); type: cell-based, human; conditions: Homo sapiens, T-cell, primary human total T-cells, baseline = anti-CD3/anti-CD28 stimulated cells without inhibitor, read-out: IL-2 secretion, Anti-CD3/Anti-CD28 stimulation, fold change over baseline; for fold induction at 0.3 µM: 0.3 μM compound; for fold induction at 1 µM: 1 μM compound; for fold induction at 4 µM: 4 μM compound
Method in brief: (§1)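 T-cells were stimulated with anti-CD3 antibody alone or with anti-CD28 antibody, in the presence or absence of Cbl-b inhibitor. IL-2 secretion or CD25 surface staining was measured, and values expressed as fold over the uninhibited baseline […].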

[3] = molecular target: T1, Cbl-b (Homo sapiens, UniProt Q13191); test: Cbl-b inhibition assay (Cbl-b activity assay, FRET, Biological Example 1; 100 mM NaCl, 60 nM Src kinase); type: biochemical; conditions: upper bound stated in text lists; read-out: IC50 values in the Cbl-b inhibition assay of Biological Example 1
T1 sequence (Q13191 36-427): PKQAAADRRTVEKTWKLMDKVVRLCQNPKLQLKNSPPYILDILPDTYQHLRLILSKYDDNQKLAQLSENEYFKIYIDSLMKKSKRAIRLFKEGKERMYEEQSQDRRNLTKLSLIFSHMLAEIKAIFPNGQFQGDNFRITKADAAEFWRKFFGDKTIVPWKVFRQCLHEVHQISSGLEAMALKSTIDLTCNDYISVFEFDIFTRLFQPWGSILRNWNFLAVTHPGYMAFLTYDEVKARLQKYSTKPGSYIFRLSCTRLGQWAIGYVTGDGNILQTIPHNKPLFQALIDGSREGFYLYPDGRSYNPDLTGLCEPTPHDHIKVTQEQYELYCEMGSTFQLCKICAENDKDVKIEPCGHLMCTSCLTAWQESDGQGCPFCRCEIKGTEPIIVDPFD
Method in brief: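 TR-FRET assay using N-terminal biotinylated Avi-tagged Cbl-b bound to streptavidin-terbium, Src kinase for Cbl-b phosphorylation, and UbcH5B irreversibly conjugated to Bodipy-Fluorescein-ubiquitin. Phosphorylated Cbl-b binds UbcH5B-Ub, bringing the fluorophores together; inhibition is read as loss of FRET signal.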

[4] = molecular target: T1, Cbl-b; test: Cbl-b activity assay (Cbl-b inhibition assay), TR-FRET of Cbl-b interaction with UbcH5B-Ub; type: biochemical; conditions: assay buffer with 100 mM NaCl, 60 nM Src kinase; read-out: Cbl-b activity IC50
Method in brief: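 UbcH5B (C85K) conjugated to N-terminally Bodipy-Fluorescein-labeled ubiquitin served as the fluorescent partner. After compound preincubation, Src kinase (60 nM) with 1 mM ATP and 5 mM MgCl2 (final) was added for 1.5 h, followed by a further 1 h incubation. Some values were obtained with 50 mM NaCl and 30 nM Src.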

[5] = test system: T-cell; test: CD25 cell surface staining on T-cells co-stimulated with anti-CD3 and anti-CD28 antibody (Biological Example 2); type: cell-based, human; conditions: Homo sapiens, T-cell, primary human total T-cells, baseline = anti-CD3/anti-CD28 stimulated cells without inhibitor, read-out: CD25 staining, Anti-CD3/Anti-CD28 stimulation, fold change over baseline; for fold induction at 0.3 µM: 0.3 μM compound; for fold induction at 1 µM: 1 μM compound; for fold induction at 4 µM: 4 μM compound
Method in brief: as §1

[6] = test system: T-cell; test: CD25 cell surface staining on T-cells stimulated with anti-CD3 antibody alone (Biological Example 2); type: cell-based; conditions: primary human total T-cells, baseline = anti-CD3/anti-CD28 stimulated cells without inhibitor, read-out: CD25 staining, Anti-CD3 stimulation, fold change over baseline; for fold induction at 1 µM: 1 μM compound; for fold induction at 8 µM: 8 μM compound

Cc1conc1CC1(c2cccc(NC(=O)c3cc(CN4CCC5(CC5)C4)cc(C4CC4)n3)c2)COC1 [Compound 500, 4-{5-azaspiro[2.4]heptan-5-ylmethyl}-6-cyclopropyl-N-(3-{3-[(4-methyl-1,2-oxazol-3-yl)methyl]oxetan-3-yl}phenyl)pyridine-2-carboxamide]
fold induction at 1 µM [1]: > 0.201
fold induction at 0.3 µM [2]: > 7.5
fold induction at 1 µM [2]: > 7.5
IC50 [3]: ≤ 100 nM
IC50 [4]: < 100 nM
fold induction at 0.3 µM [5]: 1.31 to 1.5
fold induction at 1 µM [5]: 1.31 to 1.5
fold induction at 1 µM [6]: > 1

CC[C@@H](c1cc2c(c(C(F)(F)F)c1)CN(c1cccc(C3(Cc4nncn4C)COC3)c1)C2=O)N1CC[C@H](F)C1 [Example 545, 6-((S)-1-((S)-3-fluoropyrrolidin-1-yl)propyl)-2-(3-(3-((4-methyl-4H-1,2,4-triazol-3-yl)methyl)oxetan-3-yl)phenyl)-4-(trifluoromethyl)isoindolin-1-one]
fold induction at 1 µM [1]: > 0.201
fold induction at 0.3 µM [2]: > 7.5
fold induction at 1 µM [2]: > 7.5
IC50 [3]: ≤ 100 nM
IC50 [4]: < 100 nM
fold induction at 0.3 µM [5]: 1.51 to 1.75
fold induction at 1 µM [5]: 1.51 to 1.75
fold induction at 1 µM [6]: > 1

C[C@H](c1cc2c(c(C(F)(F)F)c1)CN(c1cccc(C3(Cc4nncn4C)COC3)c1)C2=O)N1CCC(F)(F)C1 [Compound 419, (R)-6-(1-(3,3-difluoropyrrolidin-1-yl)ethyl)-2-(3-(3-((4-methyl-4H-1,2,4-triazol-3-yl)methyl)oxetan-3-yl)phenyl)-4-(trifluoromethyl)isoindolin-1-one]
fold induction at 1 µM [1]: 0.151 to 0.2
fold induction at 8 µM [1]: > 0.201
fold induction at 0.3 µM [2]: 2.51 to 5
fold induction at 1 µM [2]: > 7.5
fold induction at 4 µM [2]: > 7.5
IC50 [3]: ≤ 100 nM
IC50 [4]: < 100 nM
fold induction at 0.3 µM [5]: 1.01 to 1.3
fold induction at 1 µM [5]: 1.31 to 1.5
fold induction at 4 µM [5]: 1.31 to 1.5
fold induction at 1 µM [6]: > 1
fold induction at 8 µM [6]: > 1

Cn1cnnc1CC1(c2cccc(NC(=O)c3cc(OC(F)F)cc(C4CC4)n3)c2)COC1 [Compound 502, 6-cyclopropyl-4-(difluoromethoxy)-N-(3-{3-[(4-methyl-1,2,4-triazol-3-yl)methyl]oxetan-3-yl}phenyl)pyridine-2-carboxamide]
fold induction at 1 µM [1]: > 0.201
fold induction at 0.3 µM [2]: 5 to 7.5
fold induction at 1 µM [2]: > 7.5
IC50 [3]: ≤ 100 nM
IC50 [4]: < 100 nM
fold induction at 0.3 µM [5]: 1.01 to 1.3
fold induction at 1 µM [5]: 1.01 to 1.3
fold induction at 1 µM [6]: > 1

Cn1cnnc1CC1(c2cccc(N3Cc4c(cc(CN5CCCC5=O)cc4C(F)(F)F)C3=O)c2)COC1 [Compound 426, 2-(3-(3-((4-methyl-4H-1,2,4-triazol-3-yl)methyl)oxetan-3-yl)phenyl)-6-((2-oxopyrrolidin-1-yl)methyl)-4-(trifluoromethyl)isoindolin-1-one]
fold induction at 1 µM [1]: 0.151 to 0.2
fold induction at 8 µM [1]: > 0.201
fold induction at 0.3 µM [2]: 1.01 to 2.5
fold induction at 1 µM [2]: 1.01 to 2.5
fold induction at 4 µM [2]: 2.51 to 5
IC50 [3]: ≤ 100 nM
IC50 [4]: < 100 nM
fold induction at 0.3 µM [5]: 1.01 to 1.3
fold induction at 1 µM [5]: 1.01 to 1.3
fold induction at 4 µM [5]: 1.01 to 1.3
fold induction at 1 µM [6]: > 1
fold induction at 8 µM [6]: > 1

Cn1cnnc1CC1(c2cccc(N3Cc4c(cc(OC5CC5)cc4C(F)(F)F)C3=O)c2)COC1 [Compound 513, 6-cyclopropoxy-2-(3-{3-[(4-methyl-1,2,4-triazol-3-yl)methyl]oxetan-3-yl}-phenyl)-4-(trifluoromethyl)-3H-isoindol-1-one]
fold induction at 1 µM [1]: 0.151 to 0.2
fold induction at 0.3 µM [2]: 1.01 to 2.5
fold induction at 1 µM [2]: 2.51 to 5
IC50 [3]: ≤ 100 nM
IC50 [4]: < 100 nM
fold induction at 0.3 µM [5]: 1.01 to 1.3
fold induction at 1 µM [5]: 1.01 to 1.3
fold induction at 1 µM [6]: > 1
